Results taken from patent US20160228380A1, “IMPREGNANATION OF OXYGEN CARRIER COMPOUNDS INTO CARRIER MATERIALS PROVIDING COMPOSITIONS AND METHODS FOR THE TREATMENT OF WOUNDS AND BURNS” (VIRGINIA COMMONWEALTH UNIVERSITY, priority 2013, published 2016).

Assay: TGA of PFD weight loss from coated aerogel, uncoated aerogel and pure PFD
Format: physicochemical
Settings: held at 37° C. for 60 minutes, aerogel-free basis

loss of available PFD: 100%
SMILES: FC1(F)C(F)(F)C(F)(F)C2(F)C(F)(F)C(F)(F)C(F)(F)C(F)(F)C2(F)C1(F)F (stereo not shown) [pure PFD, perfluorodecalin]
